Experimental data: ChEMBL document CHEMBL4610118 (J Med Chem, 2020)

Biological target: CDK7/Cyclin H/MNAT1 (Homo sapiens, UniProt P50613)
Sequence (P51946 whole entry): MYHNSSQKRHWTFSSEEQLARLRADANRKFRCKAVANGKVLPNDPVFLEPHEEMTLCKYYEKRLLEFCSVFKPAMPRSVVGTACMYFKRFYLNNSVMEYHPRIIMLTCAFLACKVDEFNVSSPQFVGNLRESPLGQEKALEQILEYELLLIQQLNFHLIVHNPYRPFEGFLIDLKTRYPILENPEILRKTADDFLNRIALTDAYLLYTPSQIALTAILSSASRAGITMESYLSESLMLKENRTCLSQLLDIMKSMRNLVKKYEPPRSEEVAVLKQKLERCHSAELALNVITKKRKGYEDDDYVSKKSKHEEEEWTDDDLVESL
Sequence (P50613 whole entry): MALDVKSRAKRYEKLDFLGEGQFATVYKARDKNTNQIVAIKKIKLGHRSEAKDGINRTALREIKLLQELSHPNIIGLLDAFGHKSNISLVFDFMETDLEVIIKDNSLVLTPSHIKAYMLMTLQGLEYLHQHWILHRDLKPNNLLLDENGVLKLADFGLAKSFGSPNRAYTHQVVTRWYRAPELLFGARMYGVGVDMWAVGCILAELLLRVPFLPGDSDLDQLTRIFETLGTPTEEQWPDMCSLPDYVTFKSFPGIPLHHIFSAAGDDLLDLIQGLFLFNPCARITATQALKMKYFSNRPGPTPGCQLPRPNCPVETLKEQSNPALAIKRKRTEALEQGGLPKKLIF
Sequence (P51948 whole entry, further chain): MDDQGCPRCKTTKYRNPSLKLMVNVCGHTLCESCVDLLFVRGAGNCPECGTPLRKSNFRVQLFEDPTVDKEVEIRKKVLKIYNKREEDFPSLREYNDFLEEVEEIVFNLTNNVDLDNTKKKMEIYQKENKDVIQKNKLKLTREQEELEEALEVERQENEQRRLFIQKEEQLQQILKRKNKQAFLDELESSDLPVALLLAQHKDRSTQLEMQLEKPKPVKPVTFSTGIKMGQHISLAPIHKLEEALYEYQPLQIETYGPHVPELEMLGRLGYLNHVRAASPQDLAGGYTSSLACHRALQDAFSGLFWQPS
Description: Inhibition of recombinant human full-length His-tagged CDK7/Cyclin H/MNAT1 expressed in baculovirus infection system using Cdk7/9tide as substrate measured after 1 hr by Alexa Fluor 647 ADP Tracer-based Adapta assay

Compared with `C=CC(=O)Nc1ccc(C(=O)N2CCC[C@@H](Nc3ncc(SCc4ncc(C(C)(C)C)o4)s3)C2)cc1C(F)(F)F`, `C=CC(=O)Nc1ccc(C(=O)N2CCC[C@@H](Nc3ncc(SCc4ncc(C(C)(C)C)o4)s3)C2)cc1F` is 1.6-fold higher in IC50: 3.49 µM for the first, 5.54 µM for the second. The first is the more potent here.

First: C=CC(=O)Nc1ccc(C(=O)N2CC(Nc3ncc(SCc4ncc(C(C)(C)C)o4)s3)CC(F)(F)C2)cc1 (stereo not given)
Second: C=CC(=O)Nc1ccc(C(=O)N2C[C@H](Nc3ncc(SCc4ncc(C(C)(C)C)o4)s3)CC[C@@H]2C)cc1
The IC50 of the first is 16-fold higher: 9.6 µM for the first, 0.609 µM for the second. The second is the more potent here.

Going from `C=CC(=O)Nc1ccc(C(=O)N2CCC[C@@H](Nc3nc(C)c(SCc4ncc(C(C)(C)C)o4)s3)C2)cc1` to `C=CC(=O)Nc1ccc(C(=O)N2CCC[C@@H](Nc3ncc(Cl)c(SCc4ncc(C(C)(C)C)o4)n3)C2)cc1`, the IC50 falls from over 10 µM to 5.12 µM.

`C=CC(=O)Nc1ccc(C(=O)N2CCC[C@@H](Nc3ncc(SCc4ccncc4)s3)C2)cc1` and `C=CC(=O)Nc1ccc(C(=O)N2CCC[C@@H](Nc3ncc([S+]([O-])Cc4ncc(C(C)(C)C)o4)s3)C2)cc1` (stereo not given in full) cannot be ordered by IC50: over 10 µM for the first, over 10 µM for the second.

Compared with `C=CC(=O)Nc1ccc(C(=O)N2CCC[C@@H](Nc3ncc(SCc4ncc(C(C)(C)C)o4)s3)[C@H]2C)cc1`, `C=CC(=O)Nc1ccc(C(=O)N2CCC[C@@H](Nc3ncc(SCc4ncc(C(C)(C)C)o4)s3)C2)nc1` is 2-fold lower in IC50: 7.79 µM for the first, 3.89 µM for the second.
